Test results as given in patent US8742116B2, “Cycloalkylamine substituted isoquinolone derivatives” (Sanofi, priority 2006, dated 2014).

Biological target: T1, Active human recombinant ROCK II (N-terminal His6-tagged recombinant human ROCK-II residues 11-552) (Homo sapiens, UniProt O75116)
T1 construct: recombinant human ROCK-II residues 11-552; His6 (N); purchased Upstate Ltd., Dundee, UK
Experiment: Determination of Rho Kinase Inhibition (Caliper peptide phosphorylation assay)
Format: biochemical
Details: Fluorescein-AKRRRLSSLRA-COOH substrate and ATP, 60 min incubation at 32° C., respective form (salt or free base) obtained as in the examples
Experimental: Determination of Rho Kinase Inhibition
To measure Rho-kinase inhibition, IC50 values were determined according to the following protocol:
Active human recombinant ROCK II (N-terminal His6-tagged recombinant human ROCK-II residues 11-552) was purchased from Upstate Ltd., Dundee, UK. The peptide substrate, Fluorescein-AKRRRLSSLRA-COOH, was obtained from JPT Peptide Technologies, Berlin, Germany. Adenosine-5′-triphosphate (ATP), bovine serum albumine (BSA), dimethylsulphoxide (DMSO), 4-(2-hydroxyethyl)piperazine-1-ethanesulfonic acid (Hepes), Brij-35 and dithiothreitol (DTT) were purchased from Sigma-Aldrich, Munich, Germany. Tris(hydroxymethyl)-aminomethane (Tris), magnesium chloride, NaOH, 1 M HCl and EDTA were obtained from Merck Biosciences, Darmstadt, Germany. “Complete” protease inhibitor was from Roche Diagnostics, Mannheim, Germany.
Test compounds were diluted to the appropriate concentrations in buffer 1 (25 mM Tris-HCl, pH 7.4, 5 mM MgCl2, 2 mM DTT, 0.02% (w/v) BSA and 3% DMSO). The ROCK II enzyme was diluted to a concentration of 100 ng/ml in buffer 2 (25 mM Tris-HCl, pH 7.4, 5 mM MgCl2, 2 mM DTT and 0.02% (w/v) BSA). The peptide substrate and ATP were diluted to concentrations of 3 μM and 120 μM, respectively, in the buffer 2. 2 μl of the compound solution were mixed with 2 μl of the diluted enzyme in a 384-well small volume microtiter plate (Greiner, Bio-One, Frickenhausen, Germany), and the kinase reaction was initiated by addition of 2 μl of the solution containing peptide substrate and ATP. After 60 min incubation at 32° C., the reaction was stopped by addition of 20 μl of a solution containing 100 mM Hepes-NaOH, pH 7.4, 0.015% (v/v) Brij-35, 45 mM EDTA and 0.227% chip coating reagent 1 (Caliper Lifescience Inc, Hopkinton, Mass.). Phosphorylation of the substrate peptide was then detected on a Caliper 3000 instrument essentially as described by Pommereau et al. (J. Biomol. Screening 2004, 9(5), 409-416). Separation conditions were as follows: Pressure—1.3 psi, upstream voltage—1562 V, downstream voltage—500 V, sample sip time 200 ms. Positive controls (buffer 1 instead of compound) and negative controls (buffer 1 instead of compound and buffer 2 instead of ROCK II) were run in parallel on each plate.
The following products/compounds were tested in said assay by using the respective form (salt or free base) obtained as in the examples described above and the following activities were measured.

T1 sequence (O75116 11-552): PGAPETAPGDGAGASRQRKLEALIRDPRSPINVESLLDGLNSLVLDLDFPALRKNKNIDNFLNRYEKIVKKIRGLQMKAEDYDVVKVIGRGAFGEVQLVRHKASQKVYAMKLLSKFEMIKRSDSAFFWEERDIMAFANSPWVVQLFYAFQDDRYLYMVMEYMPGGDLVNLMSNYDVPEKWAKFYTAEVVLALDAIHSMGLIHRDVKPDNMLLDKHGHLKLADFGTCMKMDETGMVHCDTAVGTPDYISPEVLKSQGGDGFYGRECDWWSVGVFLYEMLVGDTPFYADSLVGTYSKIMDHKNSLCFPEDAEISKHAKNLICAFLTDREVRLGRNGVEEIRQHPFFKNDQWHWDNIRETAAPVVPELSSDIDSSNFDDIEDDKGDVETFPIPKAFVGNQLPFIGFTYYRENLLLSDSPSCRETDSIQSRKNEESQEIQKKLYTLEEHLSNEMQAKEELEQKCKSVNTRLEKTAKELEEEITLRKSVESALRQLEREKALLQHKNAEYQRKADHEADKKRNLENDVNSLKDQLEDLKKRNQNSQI

| IC50 [µM] | SMILES |
| --- | --- |
| ≤ 1 | NC(=O)C1CCN(C2CCC(Oc3cc4cc[nH]c(=O)c4cc3Cl)CC2)CC1 (mixture of isomers) [Compound 15, 1-[4-(7-Chloro-1-oxo-1,2-dihydro-isoquinolin-6-yloxy)-cyclohexyl]-piperidine-4-carboxylic acid amide] |
| ≤ 1 | N[C@H]1CC[C@H](Oc2cc3cc[nH]c(=O)c3cc2Cl)C1 [Compound 44, 6-((1S,3S)-3-Amino-cyclopentyloxy)-7-chloro-2H-isoquinolin-1-one] |
| ≤ 1 | CCC[C@]1(N)CCC[C@@H](Oc2cc3cc[nH]c(=O)c3cc2Cl)CCC1 (single isomer, unassigned) [Compound 66, 6-(cis-5-Amino-5-propyl-cyclooctyloxy)-7-chloro-2H-isoquinolin-1-one] |
| ≤ 1 | O=C(CCC1CCNCC1)N[C@H]1CC[C@@H](Oc2cc3cc[nH]c(=O)c3cc2Cl)CC1 [Compound 30, N-[4-(7-Chloro-1-oxo-1,2-dihydro-isoquinolin-6-yloxy)-cis-cyclohexyl]-3-piperidin-4-yl-propionamide] |
| ≤ 1 | O=c1[nH]ccc2cc(O[C@H]3CC[C@H](N4CCOCC4)CC3)c(Cl)cc12 [Compound 17, 7-Chloro-6-(4-morpholin-4-yl-cyclohexyloxy)-2H-isoquinolin-1-one] |
| ≤ 1 | N[C@H]1C[C@H](COc2cc3cc[nH]c(=O)c3cc2Cl)C1 [Compound 56, trans-6-(3-Amino-cyclobutylmethoxy)-7-chloro-2H-isoquinolin-1-one] |
| ≤ 1 | O=c1[nH]ccc2cc(OC3CCC(N4CCOCC4)CC3)c(Cl)cc12 (mixture of isomers) [Compound 18, 7-Chloro-6-(4-morpholin-4-yl-cyclohexyloxy)-2H-isoquinolin-1-one] |
| ≤ 1 | CN1CCN([C@H]2CC[C@H](Oc3cc4cc[nH]c(=O)c4cc3Cl)CC2)CC1 [Compound 21, 7-Chloro-6-[4-(4-methyl-piperazin-1-yl)-cyclohexyloxy]-2H-isoquinolin-1-one] |
| ≤ 1 | O=c1[nH]ccc2cc(OC3CCC(N4CCCCC4)CC3)c(Cl)cc12 (mixture of isomers) [Compound 16, 7-Chloro-6-(4-piperidin-1-yl-cyclohexyloxy)-2H-isoquinolin-1-one] |
| 1 to 10 | Cc1cc2c(=O)[nH]ccc2cc1O[C@H]1CC[C@H](NC(=O)CC2CCNCC2)CC1 [Compound 29, N-[4-(7-Methyl-1-oxo-1,2-dihydro-isoquinolin-6-yloxy)-trans-cyclohexyl]-2-piperidin-4-yl-acetamide] |
| ≤ 1 | O=c1[nH]ccc2cc(O[C@H]3CC[C@@H](N4CCCC4)CC3)c(Cl)cc12 [Compound 20, 7-Chloro-6-(4-pyrrolidin-1-yl-cyclohexyloxy)-2H-isoquinolin-1-one] |
| ≤ 1 | O=C(CC1CCNCC1)N[C@H]1CC[C@@H](Oc2cc3cc[nH]c(=O)c3cc2Cl)CC1 [Compound 31, N-[4-(7-Chloro-1-oxo-1,2-dihydro-isoquinolin-6-yloxy)-cis-cyclohexyl]-2-piperidin-4-yl-acetamide] |
| ≤ 1 | CCC[C@]1(N)CCC[C@H](Oc2cc3cc[nH]c(=O)c3cc2Cl)CCC1 (single isomer, unassigned) [Compound 67, 6-(trans-5-amino-5-propyl-cyclooctyloxy)-7-chloro-2H-isoquinolin-1-one] |
| ≤ 1 | CN1CCN([C@H]2CC[C@@H](Oc3cc4cc[nH]c(=O)c4cc3Cl)CC2)CC1 [Compound 22, 7-Chloro-6-[4-(4-methyl-piperazin-1-yl)-cyclohexyloxy]-2H-isoquinolin-1-one] |
| ≤ 1 | N[C@@H]1CC[C@H](Oc2ccc3c(=O)[nH]ccc3c2)C1 [Compound 45, 6-((1S,3R)-3-Amino-cyclopentyloxy)-2H-isoquinolin-1-one] |
| ≤ 1 | O=c1[nH]ccc2cc(O[C@H]3CC[C@H](N4CCCC4)CC3)c(Cl)cc12 [Compound 19, 7-Chloro-6-(4-pyrrolidin-1-yl-cyclohexyloxy)-2H-isoquinolin-1-one] |
| ≤ 1 | O=C(O)CN[C@H]1CC[C@@H](Oc2cc3cc[nH]c(=O)c3cc2Cl)CC1 [Compound 24, [4-(7-Chloro-1-oxo-1,2-dihydro-isoquinolin-6-yloxy)-cis-cyclohexylamino]-acetic acid] |
| 1 to 10 | Cc1cc2c(=O)[nH]ccc2cc1O[C@H]1CC[C@H](NC(=O)CCC2CCNCC2)CC1 [Compound 28, N-[4-(7-Methyl-1-oxo-1,2-dihydro-isoquinolin-6-yloxy)-trans-cyclohexyl]-3-piperidin-4-yl-propionamide] |
| ≤ 1 | Cc1cc2c(=O)[nH]ccc2cc1O[C@@H]1CCC[C@H](N)CC1 (relative stereo) [Compound 47, 6-(cis-4-Amino-cycloheptyloxy)-7-methyl-2H-isoquinolin-1-one] |
| ≤ 1 | N[C@H]1CCC[C@@H](Oc2cc3cc[nH]c(=O)c3cc2Cl)CC1 (relative stereo) [Compound 48, 7-Chloro-6-(cis-4-Amino-cycloheptyloxy)-2H-isoquinolin-1-one] |

| SMILES | IC50 [µM] |
| --- | --- |
| NC1CC(Oc2cc3cc[nH]c(=O)c3cc2Cl)C1 (mixture of isomers) [Compound 54, 6-(3-Amino-cyclobutoxy)-7-chloro-2H-isoquinolin-1-one] | ≤ 1 |
